Measurements as given in patent publication US7265152B2 (ViroPharma Incorporated, priority 2002, dated 2007).
pEC50, pIC50: −log10 of the molar value.

Experiments:
[1] = tested on: HCV replicon (BB7 sequence) in Huh-7-Clone A cells; experiment: HCV replicon assay: ELISA of NS5A protein in replicon-containing cells (Inhibition of Viral RNA Replication); format: cell-based; settings: Hepatitis C virus; Huh-7-Clone A, NS5A ELISA, 72-hour incubation; ranges of EC50; read-out: Replicon
Excerpt: Antiviral activity of representative compounds of the invention was first evaluated in a human liver-derived cell line (Huh-7-Clone A) containing the HCV replicon (BB7 sequence) (See Lohmann et al. Science. 1999, 285:110-3; Blight K J et al., Science. 2000, 290:1972-4; Pietschmann, T. et al., J. Virol. 2001, 73:1252-1264; and Lohmann, V. et al., J. Virol. 2001, 75:1437-1449). The HCV replicon is a subgenomic viral RNA that expresses the HCV proteins required for its own replication. These proteins include non-structural proteins NS3, NS4A, NS4B, NS5A and NS5B. The replicon also contains a foreign gene encoding a drug-selectable marker (neomycin phosphotransferase) to allow for G418 (neomycin) selection of cells that contain the replicon.
An ELISA (enzyme-linked immunosorbant assay) was used to determine the effect of compounds within the scope of the invention on the amount of HCV NS5A protein produced after a 72-hour incubation of the replicon-containing cells in the presence of varying concentrations of compound. COSTAR® 96-well cell culture plates were used but other known cell culture plates may be used. After incubation, media is removed from wells and the cells are fixed to the assay plate using 0.05% glutaraldehyde. The glutaraldehyde is then washed off using phosphate-buffered saline (PBS) following a 1 hour incubation and cells are blocked for non-specific antibody binding using for example SUPERBLOCK® reagent (blocking buffer) in PBS. The blocking agent is rinsed from the cells with PBS after 1 hour at 37° C. and primary monoclonal antibody is added to each well containing compound. Primary antibody is incubated for 1 hour at 37° C. and rinsed 3 times with PBS containing 0.02% TWEEN-20™ before addition of Horseradish Peroxidase (HRP) conjugated secondary antibody. HRP is incubated for 1 hour at 37° C. and rinsed several times, first with PBS/TWEEN-20™ followed by PBS alone. To quantify peroxidase activity, 3,3′,5, 5′-tetramethylbenzidine (TMB) substrate is added to the plate and after 30 minutes, the plates are read in an ELISA plate reader at an OD of 650 nm. Compound dose response was measured in an 8-point dose curve diluted serially to determine the inhibitory concentration at 50% (EC50 value). […] Ranges of 50% effective concentrations (EC50s) for representative compounds within the scope of this invention are listed in Table 1. Preferred compounds have 50% effective concentrations at about 30 μM or less, more preferred compounds have 50% effective concentrations at about 5 μM or less, and most preferred compounds have 50% effective concentrations at about 0.5 μM or less.

[2] = target: T1, HCV NS5B (Hepatitis C virus genotype 1b, UniProt Q9WMX2); experiment: Inhibition of viral RNA-dependent RNA polymerase (RdRp), in vitro biochemical assay; design: species or system HCV genotype 1b virus (BB7); settings: purified His-tagged NS5B (BB7), carboxyl terminal 21 amino acids removed; read-out: HCV pol-BB7 IC50
T1 construct: fusion protein, of which the carboxyl terminal 21 amino acids were removed to enhance its solubility; His tag (GSHHHHHH); made in house; host or cells: E. coli
Excerpt: The HCV NS5B-directed RdRp activity was established and characterized in a standard in vitro biochemical assay using a purified HCV NS5B protein derived from the consensus sequence of a patient infected with HCV genotype 1b virus (BB7). (See Blight K J et al., Science. 2000, 290:1972-4). The NS5B consensus sequence was cloned and expressed in E. coli as a histidine tagged (GSHHHHHH) fusion protein, of which the carboxyl terminal 21 amino acids were removed to enhance its solubility.
In addition to evaluating their activity in the replicon assay, representative compounds within the scope of the present invention, as shown in examples 1-453 of Table 1, were also evaluated for antiviral activity using this assay. A measure of the inhibitory activity of compounds of the invention may be expressed as IC50 values. IC50 values represent the concentration of the compound at which 50% of the RdRp activity is inhibited. […] These low concentrations of test compounds required to achieve 50% inhibition of the RdRp activity indicate that the compounds of the invention are effective at inhibiting RNA synthesis by viral RdRp enzymes.

| SMILES | pEC50 [1] | pIC50 [2] |
| --- | --- | --- |
| CNC(=O)c1c(-c2ccc(F)cc2)oc2cc(NC(C)=O)c(OC)cc12 [Example 18, 6-Acetylamino-2-(4-fluoro-phenyl)-5-methoxy-benzofuran-3-carboxylic acid methylamide] | > 6.00 | ≥ 6.30 |
| CNC(=O)c1c(-c2ccc(F)cc2)oc2cc(NC)c(OC(C)C)cc12 [Example 19, 2-(4-Fluoro-phenyl)-5-isopropoxy-6-methylamino-benzofuran-3-carboxylic acid methylamide] | > 6.00 | ≥ 6.30 |
| CNC(=O)c1c(-c2ccc(F)cc2)oc2cc(N(C)C)c(OC(C)C)cc12 [Example 20, 6-Dimethylamino-2-(4-fluoro-phenyl)-5-isopropoxy-benzofuran-3-carboxylic acid methylamide] | > 6.00 | ≥ 6.30 |
| CNC(=O)c1c(-c2ccc(F)cc2)oc2cc(NS(C)(=O)=O)c(OC(C)C)cc12 [Example 21, 2-(4-Fluoro-phenyl)-5-isopropoxy-6-methanesulfonylamino-benzofuran-3-carboxylic acid methylamide] | > 6.00 | ≥ 6.30 |
| CCNc1cc2oc(-c3ccc(F)cc3)c(C(=O)NC)c2cc1OC(C)C [Example 22, 6-Ethylamino-2-(4-fluoro-phenyl)-5-isopropoxy-benzofuran-3-carboxylic acid methylamide] | > 6.00 | ≥ 6.30 |
| CCN(CC)c1cc2oc(-c3ccc(F)cc3)c(C(=O)NC)c2cc1OC(C)C [Example 23, 6-Diethylamino-2-(4-fluoro-phenyl)-5-isopropoxy-benzofuran-3-carboxylic acid methylamide] | > 6.00 | ≥ 6.30 |
| CNC(=O)c1c(-c2ccc(F)cc2)oc2cc(N3CCOCC3)c(OC(C)C)cc12 [Example 24, 2-(4-Fluoro-phenyl)-5-isopropoxy-6-morpholin-4-yl-benzofuran-3-carboxylic acid methylamide] | > 6.00 | ≥ 6.30 |
| CNC(=O)c1c(-c2ccccc2)oc2ccc(OC)c(C)c12 [Example 25, 5-Methoxy-4-methyl-2-phenyl-benzofuran-3-carboxylic acid methylamide] | < 4.52 | < 4.52 |
| CNC(=O)c1c(-c2ccccc2)oc2ccc(C#N)cc12 [Example 26, 5-Cyano-2-phenyl-benzofuran-3-carboxylic acid methylamide] | > 4.52 | 4.52 to 5.30 |
| CNC(=O)c1c(-c2ccncc2)oc2ccc(OC(C)C)cc12 [Example 27, 5-Isopropoxy-2-pyridin-4-yl-benzofuran-3-carboxylic acid methylamide] | < 4.52 | 4.52 to 5.30 |
| CNC(=O)c1c(-c2ccc(F)cc2)oc2cc(-c3c(C)noc3C)c(OC)cc12 [Example 28, 6-(3,5-Dimethyl-isoxazol-4-yl)-2-(4-fluoro-phenyl)-5-methoxy-benzofuran-3-carboxylic acid methylamide] | > 6.00 | ≥ 6.30 |
| CNC(=O)c1c(-c2ccc(F)cc2)oc2cc(N(C)S(C)(=O)=O)c(OC)cc12 [Example 29, 2-(4-Fluoro-phenyl)-6-(methanesulfonyl-methyl-amino)-5-methoxy-benzofuran-3-carboxylic acid methylamide] | > 6.00 | ≥ 6.30 |
| CNC(=O)c1c(-c2ccc(F)cc2)oc2cc(N3CCOCC3)c(OCc3ccc(OC)cc3)cc12 [Example 30, 2-(4-Fluoro-phenyl)-5-(4-methoxy-benzyloxy)-6-morpholin-4-yl-benzofuran-3-carboxylic acid methylamide] | > 6.00 | ≥ 6.30 |
| CNC(=O)c1c(-c2ccc(F)cc2)oc2cc(N(Cc3ccc(OC)cc3)S(C)(=O)=O)c(OCc3ccc(OC)cc3)cc12 [Example 31, 2-(4-Fluoro-phenyl)-6-[methanesulfonyl-(4-methoxy-benzyl)-amino]-5-(4-methoxy-benzyloxy)-benzofuran-3-carboxylic acid methylamide] | > 6.00 | ≥ 6.30 |
